Experimental data as given in ChEMBL document CHEMBL2384956, “Discovery of tetrahydropyrazolopyrimidine carboxamide derivatives as potent and orally active antitubercular agents” (ACS Med Chem Lett, 2013).
≈ marks a conversion by molar mass, not a printed value. Calls of active or inactive are those of the source. The rule behind the calls is not given here.

Key:
[1] = Plasma protein binding in human; format: ADME, cell-free; details: read-out: PPB (converted)
[2] = Plasma protein binding in mouse; format: ADME, cell-free; details: read-out: PPB (converted)
[3] = Aqueous solubility of the compound at pH 6.8; format: physicochemical
[4] = Octanol-water partition coefficient, log P of the compound; format: physicochemical
[5] = test system: Mycobacterium tuberculosis; assay: Antitubercular activity against Mycobacterium tuberculosis H37Rv ATCC 27294 […]; format: functional
[6] = test system: Mycobacterium tuberculosis; assay: Antitubercular activity against Mycobacterium tuberculosis infected in BALB/c mouse assessed as reduction in log10CFU at 100 mg/kg, po qd administered 7 days post-infection for 28 days relative to control; format: functional
[7] = Ratio of Cmax in mouse lung to Cmax in mouse plasma at 25 mg/kg, po; format: ADME, organism-based; parameters: dose 25 mg/kg, route oral
[8] = Oral bioavailability in mouse at 25 mg/kg; format: ADME, organism-based; details: in vivo
[9] = Ratio of AUC in mouse lung to AUC in mouse plasma at 25 mg/kg, po; format: ADME, organism-based; parameters: dose 25 mg/kg, route oral; details: read-out: Ratio AUC
[10] = Cmax in mouse at 25 mg/kg, po; format: ADME, organism-based; parameters: dose 25 mg/kg, route oral; details: in vivo
[11] = Cmax in mouse; format: ADME, organism-based; details: in vivo
[12] = AUC in mouse; format: ADME, organism-based; details: plasma
[13] = Elimination half life in mouse at 5 mg/kg, iv; format: ADME, organism-based; parameters: dose 5 mg/kg, route intravenous; details: in vivo, read-out: beta t1/2 (converted)
[14] = AUC in mouse at 25 mg/kg, po; format: ADME, organism-based; parameters: dose 25 mg/kg, route oral; details: plasma
[15] = Clearance in mouse at 5 mg/kg, iv; format: ADME, organism-based; parameters: dose 5 mg/kg, route intravenous; details: in vivo
[16] = Volume of distribution at steady state in mouse at 5 mg/kg, iv; format: ADME, organism-based; parameters: dose 5 mg/kg, route intravenous; details: in vivo, read-out: Vdss
[17] = Clearance in mouse liver microsomes; format: ADME, Microsome; details: read-out: CLH
[18] = target: T1, Nuclear receptor subfamily 1 group I member 2 (Homo sapiens, UniProt O75469); assay: Induction of PXR-mediated CYP3A4 expression in human DPX2 cells after 24 hrs by luciferase reporter gene assay; format: cell-based; details: dpx2, 24 h
T1 sequence (O75469 whole entry): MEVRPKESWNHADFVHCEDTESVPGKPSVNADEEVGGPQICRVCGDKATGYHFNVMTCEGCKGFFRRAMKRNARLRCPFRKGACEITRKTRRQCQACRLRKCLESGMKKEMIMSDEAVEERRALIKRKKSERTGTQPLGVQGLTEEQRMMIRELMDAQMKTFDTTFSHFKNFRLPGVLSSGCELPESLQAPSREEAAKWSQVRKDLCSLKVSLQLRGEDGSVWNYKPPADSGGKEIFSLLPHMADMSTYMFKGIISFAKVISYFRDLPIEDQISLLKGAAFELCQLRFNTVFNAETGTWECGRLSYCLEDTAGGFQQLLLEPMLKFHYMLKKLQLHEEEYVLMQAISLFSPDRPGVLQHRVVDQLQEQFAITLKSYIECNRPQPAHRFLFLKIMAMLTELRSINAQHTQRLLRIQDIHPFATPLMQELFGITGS

Cytochrome P450 2C9 = Cytochrome P450 2C9 (Homo sapiens, UniProt P11712); assay: Inhibition of CYP2C9 in human liver microsomes using diclofenac as substrate by LC-MS/MS analysis; format: ADME, Microsome
Sequence of Cytochrome P450 2C9 (P11712 whole entry): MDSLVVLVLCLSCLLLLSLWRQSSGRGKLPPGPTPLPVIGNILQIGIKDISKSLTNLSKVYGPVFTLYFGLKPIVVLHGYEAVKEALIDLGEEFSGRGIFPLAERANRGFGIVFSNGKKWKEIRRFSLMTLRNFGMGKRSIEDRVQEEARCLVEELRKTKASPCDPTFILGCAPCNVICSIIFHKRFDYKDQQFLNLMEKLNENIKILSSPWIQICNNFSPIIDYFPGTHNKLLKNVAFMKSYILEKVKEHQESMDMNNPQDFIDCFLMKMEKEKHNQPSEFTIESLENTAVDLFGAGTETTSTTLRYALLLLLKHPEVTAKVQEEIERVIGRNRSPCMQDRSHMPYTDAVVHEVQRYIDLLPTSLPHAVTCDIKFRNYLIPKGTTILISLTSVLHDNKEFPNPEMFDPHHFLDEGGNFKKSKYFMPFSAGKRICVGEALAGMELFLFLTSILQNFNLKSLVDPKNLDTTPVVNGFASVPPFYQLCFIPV

Cytochrome P450 2D6 = Cytochrome P450 2D6 (Homo sapiens, UniProt P10635); assay: Inhibition of CYP2D6 in human liver microsomes using bufuralol as substrate by LC-MS/MS analysis; format: ADME, Microsome
Sequence of Cytochrome P450 2D6 (P10635 whole entry): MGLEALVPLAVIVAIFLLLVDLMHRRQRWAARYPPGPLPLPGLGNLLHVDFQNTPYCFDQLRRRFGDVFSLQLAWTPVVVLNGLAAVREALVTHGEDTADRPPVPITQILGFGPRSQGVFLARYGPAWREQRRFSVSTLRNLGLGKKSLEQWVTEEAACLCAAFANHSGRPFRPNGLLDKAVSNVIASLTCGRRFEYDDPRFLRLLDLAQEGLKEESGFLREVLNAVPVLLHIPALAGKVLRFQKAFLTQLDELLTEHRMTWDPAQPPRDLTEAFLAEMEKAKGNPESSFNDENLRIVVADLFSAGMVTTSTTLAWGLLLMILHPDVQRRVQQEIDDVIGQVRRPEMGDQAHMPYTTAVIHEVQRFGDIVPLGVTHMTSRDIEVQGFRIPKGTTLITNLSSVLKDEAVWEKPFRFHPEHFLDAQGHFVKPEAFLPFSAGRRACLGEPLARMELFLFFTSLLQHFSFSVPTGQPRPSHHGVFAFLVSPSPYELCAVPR

Cytochrome P450 3A4 = Cytochrome P450 3A4 (Homo sapiens, UniProt P08684); assay: Inhibition of CYP3A4 in human liver microsomes using midazolam as substrate by LC-MS/MS analysis; format: ADME, Microsome
Sequence of Cytochrome P450 3A4 (P08684 whole entry): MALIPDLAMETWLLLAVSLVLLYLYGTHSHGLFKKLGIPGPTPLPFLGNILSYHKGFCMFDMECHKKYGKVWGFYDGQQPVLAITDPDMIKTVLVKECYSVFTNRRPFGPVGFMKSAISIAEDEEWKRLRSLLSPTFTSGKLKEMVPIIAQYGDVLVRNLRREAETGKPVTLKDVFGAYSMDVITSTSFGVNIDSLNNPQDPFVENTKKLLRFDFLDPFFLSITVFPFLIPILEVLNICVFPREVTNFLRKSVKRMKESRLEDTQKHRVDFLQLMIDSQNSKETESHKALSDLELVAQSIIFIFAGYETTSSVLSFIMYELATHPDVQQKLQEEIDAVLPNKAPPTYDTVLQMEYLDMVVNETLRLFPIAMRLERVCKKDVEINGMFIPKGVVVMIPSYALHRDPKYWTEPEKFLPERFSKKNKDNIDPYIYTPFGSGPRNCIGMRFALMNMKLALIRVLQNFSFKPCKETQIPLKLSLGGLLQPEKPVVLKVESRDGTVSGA

Cytochrome P450 3A5 = Cytochrome P450 3A5 (Homo sapiens, UniProt P20815); assay: Inhibition of CYP3A5 in human liver microsomes using midazolam as substrate by LC-MS/MS analysis; format: ADME, Microsome
Sequence of Cytochrome P450 3A5 (P20815 whole entry): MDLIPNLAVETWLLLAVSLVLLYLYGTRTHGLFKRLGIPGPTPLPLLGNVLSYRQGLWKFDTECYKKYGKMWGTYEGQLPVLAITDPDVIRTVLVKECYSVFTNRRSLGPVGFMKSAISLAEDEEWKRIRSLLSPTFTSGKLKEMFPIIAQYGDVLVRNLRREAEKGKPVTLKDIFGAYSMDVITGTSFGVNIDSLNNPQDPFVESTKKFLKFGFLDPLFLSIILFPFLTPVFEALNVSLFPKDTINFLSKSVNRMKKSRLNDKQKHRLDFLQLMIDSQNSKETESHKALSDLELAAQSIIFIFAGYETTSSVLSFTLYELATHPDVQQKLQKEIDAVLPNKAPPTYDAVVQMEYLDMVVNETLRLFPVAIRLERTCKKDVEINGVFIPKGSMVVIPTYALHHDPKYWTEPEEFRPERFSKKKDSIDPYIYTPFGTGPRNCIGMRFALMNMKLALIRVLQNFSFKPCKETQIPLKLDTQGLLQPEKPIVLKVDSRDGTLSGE

[19] = test system: Mycobacterium tuberculosis; assay: Bactericidal activity against Mycobacterium tuberculosis H37Rv ATCC 27294 infected in activated human THP1 cells; format: functional, organism-based; details: THP-1
[20] = Cmax in mouse at 200 mg/kg, po; format: ADME, organism-based; parameters: dose 200 mg/kg, route oral; details: in vivo
[21] = AUC in mouse at 200 mg/kg, po; format: ADME, organism-based; parameters: dose 200 mg/kg, route oral; details: plasma

Structure (SMILES)	fraction unbound [1]	fraction unbound [2]	solubility [3]	logP [4]	MIC [5]	Activity [6]	Kp [7]	bioavailability [8]	Kp [9]	Cmax [10]	half-life [13]	AUC [14]	clearance [15]	Vd [16]	microsomal CLint [17]	Activity [18]	inhibition (INH) (Cytochrome P450 2C9)	inhibition (INH) (Cytochrome P450 2D6)	inhibition (INH) (Cytochrome P450 3A4)	inhibition (INH) (Cytochrome P450 3A5)	other results
COc1ccc(CNC(=O)c2cnn3c2N[C@@H](c2ccc(C)cc2)C[C@H]3C(F)(F)F)cn1	< 0.01	< 0.01	< 4 µM	5.1	0.47 µM (≈ 0.209 µg/mL)																
CC[C@@H](CO)NCCN[C@@H](CC)CO						Active															
Cc1ccc([C@H]2C[C@@H](C(F)(F)F)n3ncc(C(=O)NCc4ccc(F)cc4)c3N2)cc1	< 0.01	< 0.01	< 4 µM	6.3	0.15 µM (≈ 0.0649 µg/mL)		3.2	65%	4.5	3.6 µM	4.2 h	18.9 µM·h	31 mL/min/kg	6.3 L/kg	43.5 µL/min/mg	Not Active	Not Active	Not Active	Not Active	Not Active	log10cfu [6]: 3.5; Cmax [11]: 8.3 µM; AUC [12]: 91.1 µM·h; Activity [19]: Active
Cc1ccc([C@H]2C[C@@H](C(F)(F)F)n3ncc(C(=O)NCc4ccc(F)cn4)c3N2)cc1	0.01	< 0.01	< 4 µM	4.9	0.83 µM (≈ 0.36 µg/mL)																
Cc1ccc([C@H]2C[C@@H](C(F)(F)F)n3ncc(C(=O)NCc4ccc(F)cn4)c3N2)nc1	0.181	0.128	347 µM (≈ 151 µg/mL)	3.2	52.2 µM (≈ 22.7 µg/mL)																
Cc1ccc([C@H]2C[C@@H](C(F)F)n3ncc(C(=O)NCc4ccc(F)cc4)c3N2)nc1	0.043	0.052	212 µM (≈ 88.1 µg/mL)	4.6	0.6 µM (≈ 0.249 µg/mL)	inactive	1.7	53%	2.8	5.5 µM	1.8 h	16.8 µM·h	24 mL/min/kg	2.6 L/kg	85.6 µL/min/mg	Not Active	Not Active	Not Active	Not Active	Not Active	Cmax [20]: 15.2 µM; AUC [21]: 77.7 µM·h
COCCOc1ccc([C@H]2C[C@@H](C(F)(F)F)n3ncc(C(=O)NCc4ccc(F)cn4)c3N2)cc1	0.122	0.108	20 µM (≈ 9.87 µg/mL)	3.2	3.7 µM (≈ 1.83 µg/mL)																
O=C(NCc1ccc(F)cc1)c1cnn2c1N[C@@H](c1ccc(OC3COC3)cc1)C[C@H]2C(F)(F)F	0.027	0.024	9 µM (≈ 4.41 µg/mL)	5.1	0.73 µM (≈ 0.358 µg/mL)	inactive	2.7	52%	2.2	3.7 µM	4.1 h	41.7 µM·h	9.9 mL/min/kg	2.5 L/kg	8.92 µL/min/mg	Not Active	Not Active	Not Active	Not Active	Not Active	Cmax [20]: 7.3 µM; AUC [21]: 71.3 µM·h
Cc1ccc([C@H]2C[C@@H](C(F)(F)F)n3ncc(C(=O)NCc4ccc(F)cc4)c3N2)nc1	0.039	0.042	9 µM (≈ 3.9 µg/mL)	4.4	0.44 µM (≈ 0.191 µg/mL)	inactive	1.9	100%	2.1	3.6 µM	1.3 h	25 µM·h	38 mL/min/kg	3.4 L/kg	71.8 µL/min/mg	Not Active	Not Active	Not Active	Not Active	Not Active	Cmax [20]: 11.8 µM; AUC [21]: 91.9 µM·h
COCCOc1ccc([C@H]2C[C@@H](C(F)(F)F)n3ncc(C(=O)NCc4ccc(F)cc4)c3N2)cc1	0.019	0.015	6 µM (≈ 2.95 µg/mL)	4.1	0.44 µM (≈ 0.217 µg/mL)																
Cc1ccc([C@H]2C[C@@H](C(F)(F)F)n3ncc(C(=O)NCc4ccc(F)cc4)c3N2)o1	< 0.01	< 0.01	< 4 µM	5.5	0.13 µM (≈ 0.0549 µg/mL)																
O=C(NCc1ccc(F)cc1)c1cnn2c1N[C@@H](c1ccc(N3CCOCC3)cc1)C[C@H]2C(F)(F)F	0.018	0.016	< 4 µM	4.8	0.87 µM (≈ 0.438 µg/mL)																
